Here are results for seven molecules from paper PMC12530851, “Design, synthesis, and apoptotic antiproliferative activity of novel dihydropyrimidine-5-carbonitrile/1,2,4-oxadiazole hybrids as dual EGFR/VEGFR-2 inhibitors endowed with antioxidant activity” (RSC Advances, 2025).

Data set [1] is described as follows: Cell viability assay (MTT) on normal MCF-10A cells. Type of data set: cell-based. The conditions noted are these: human, MCF-10A mammary gland epithelial cells (normal cell line), MCF-10A normal cells, four-day incubation. On the procedure:
The impact of novel compounds 10a–l on the viability of a normal human cell line, specifically human mammary gland epithelial cells (MCF-10A), was assessed to ascertain the safety of the newly synthesized compounds. The MTT test was employed to assess the cell viability of the novel compounds after a four-day incubation with MCF-10A cells.[29,37] Refer to Appendix A for more experimental details.
The effect of new compounds 10a–l on the viability of a normal human cell line, namely human mammary gland epithelial cells (MCF-10A), was evaluated to determine the safety of the newly synthesized compounds.
4.2. Biological evaluation
4.2.1 Cell Viability assay (MTT assay)
MTT assay was performed to investigate the effect of the synthesized compounds on mammary epithelial cells (MCF-10A). The cells were propagated in medium consisting of Ham's F-12 medium/ Dulbecco's modified Eagle's medium (DMEM) (1:1) supplemented with 10% foetal calf serum, 2 mM glutamine, insulin (10 μg/mL), hydrocortisone (500 ng/mL) and epidermal growth factor (20 ng/mL). Trypsin ethylenediamine tetra acetic acid (EDTA) was used to passage the cells after every 2-3 days. 96-well flat-bottomed cell culture plates were used to seed the cells at a density of 10^4 cells mL-1. The medium was aspirated from all the wells of culture plates after 24 h followed by the addition of synthesized compounds (in 200 μL medium to yield a final concentration of 0.1% (v/v) dimethyl sulfoxide) into individual wells of the plates. Four wells were designated to a single compound. The plates were allowed to incubate at 37°C for 96 h. Afterwards, the medium was aspirated and 3-[4,5-dimethylthiazol-2-yl]-2,5-diphenyltetrazolium bromide (MTT) (0.4 mg/mL) in medium was added to each well and subsequently incubated for 3 h. The medium was aspirated and 150 μL dimethyl sulfoxide (DMSO) was added to each well. The plates were vortexed followed by the measurement of absorbance at 540 nm on a microplate reader. […]

Data set [2] concerns A-549 (lung cancer). The data set can be described thus: Antiproliferative assay, A-549. Type of data set: cell-based. The conditions noted are these: Homo sapiens, A549; A-549 lung cancer cells; read-out: Antiproliferative activity IC50 ± SEM, A-549. The source says: (§1) The dose–response experiments established the IC50 values for the new compounds. The given findings were obtained from at least two distinct studies, each comprising three repeats per concentration. Appendix A (SI File) provides experimental details.[38,39]
(§2) The MTT assay[43] was utilized to assess the antiproliferative effects of compounds 10a–l on four human cancer cell lines: HT-29 (colon cancer), Panc-1 (pancreatic cancer), A-549 (lung cancer), and MCF-7 (breast cancer). […]
(§3) 4.2.2. Assay for antiproliferative effect
(§4) To explore the antiproliferative potential of compounds propidium iodide fluorescence assay was performed using different cell lines such as Panc-1 (pancreas cancer cell line), MCF-7 (breast cancer cell line), HT-29 (colon cancer cell line) and A-549 (epithelial cancer cell line), respectively. To calculate the total nuclear DNA, a fluorescent dye (propidium iodide, PI) is used which can attach to the DNA, thus offering a quick and precise technique. PI cannot pass through the cell membrane and its signal intensity can be considered as directly proportional to quantity of cellular DNA. Cells whose cell membranes are damaged or have changed permeability are counted as dead ones. The assay was performed by seeding the cells of different cell lines at a density of 3000-7500 cells/well (in 200μl medium) in culture plates followed by incubation for 24h at 37 °C in humidified 5%CO2/95% air atmospheric conditions. The medium was removed; the compounds were added to the plates at 10 μM concentrations (in 0.1% DMSO) in triplicates, followed by incubation for 48h. DMSO (0.1%) was used as control. After incubation, medium was removed followed by the addition of PI (25 μl, 50μg/mL in water/medium) to each well of the plates. At - 80 °C, the plates were allowed to freeze for 24 h, followed by thawing at 25 °C. A fluorometer (Polar-Star BMG Tech) was used to record the readings at excitation and emission wavelengths of 530 and 620 nm for each well. The percentage cytotoxicity of compounds was calculated using […]
(§5) Where ATC= Absorbance of treated cells and AC= Absorbance of control. Erlotinib was used as positive control in the assay. […]

In data set [3] the test system is MCF-7 (breast cancer). The data set can be described thus: Antiproliferative assay, MCF-7. Type of data set: cell-based, human. The conditions noted are these: Homo sapiens, MCF7; MCF-7 breast cancer cells; read-out: Antiproliferative activity IC50 ± SEM, MCF-7.
From the text: as §1, §2, §3, §4, §5

In data set [4] the test system is Panc-1 (pancreatic cancer). The data set can be described thus: Antiproliferative assay, Panc-1. The conditions noted are these: Homo sapiens; Panc-1 pancreatic cancer cells; read-out: Antiproliferative activity IC50 ± SEM, Panc-1. Type of data set: cell-based.
From the text: as §1, §2, §3, §4, §5

Data set [5] relates to HT-29 (colon cancer). Put plainly: Antiproliferative assay, HT-29. Type of data set: cell-based. The conditions noted are these: Homo sapiens; HT-29 colon cancer cells; read-out: Antiproliferative activity IC50 ± SEM, HT-29.
From the text: as §1, §2, §3, §4, §5

The test system of data set [6] is four human cancer cell lines (A-549, MCF-7, Panc-1, HT-29). Put plainly: Antiproliferative assay, average over four cancer cell lines. Type of data set: cell-based. The conditions noted are these: for GI50: average IC50 across A-549, MCF-7, Panc-1, HT-29; for Reduction in antiproliferative potency relative to 10k (GI50): less potent than 10k. On the procedure: The given findings were obtained from at least two distinct studies, each comprising three repeats per concentration. Appendix A (SI File) provides experimental details.[38,39] […]
as §3
To explore the antiproliferative potential of compounds propidium iodide fluorescence assay was performed using different cell lines such as Panc-1 (pancreas cancer cell line), MCF-7 (breast […]
respectively. To calculate the total nuclear DNA, a fluorescent dye (propidium iodide, PI) is used which can attach to the DNA, thus offering a quick and precise technique. PI cannot pass through the cell membrane and its signal intensity can be considered as directly proportional to quantity of cellular DNA. Cells whose cell membranes are damaged or have changed permeability are counted as dead ones. The assay was performed by seeding the cells of different cell lines at a density of 3000-7500 cells/well (in 200μl medium) in culture plates followed by incubation for 24h at 37 °C […]
The medium was removed; the compounds were added to the plates at 10 μM concentrations (in 0.1% DMSO) in triplicates, followed by incubation for 48h. DMSO (0.1%) was used as control. After incubation, medium was removed followed by the addition of PI (25 μl, 50μg/mL in water/medium) to each well of the plates. At - 80 °C, the plates were allowed to freeze for 24 h, followed by thawing at 25 °C. A fluorometer (Polar-Star BMG Tech) was used to record the readings at excitation and emission wavelengths of 530 and 620 nm for each well. The percentage cytotoxicity of compounds was calculated using […]
Where ATC= Absorbance of treated cells and AC= Absorbance of control. […]
positive control in the assay. […]

Data set [7] has as its target T1, VEGFR-2 (Homo sapiens, UniProt P35968). The data set can be described thus: VEGFR-2 inhibitory assay.
Protocol: The majority of signals detected by antiphosphotyrosine antibody were from EGFR because the enzyme preparation contained low impurities.
Prepare all the solutions using autoclaved, deionized water and analytical grade reagents. Prepare
and store all the reagents at room temperature (unless indicated otherwise). EDTA solution (0.5
M, pH 8.0): add 95 mL ultra-pure water to 14.612 g EDTA, adjust the pH to 8.0 using NaOH
solution, add 5 mL ultra-pure water; 1×Kinase Assay Buffer: add 25 mL HEPES solution (1 M),
water, adjust pH to 7.5 and constant volume to 500 mL using ultrapure water; 4×Stop solution (40
mM): Mix 0.8 mL of the foregoing EDTA solution, 1 mL 10×Detection Buffer and 8.2 mL ultra-
pure water; 1×Detection Buffer: Mix 1 mL 10×Detection Buffer with 9 mL water; 4×VEGFR
μM) was added to 624 μL 1×Kinase Assay Buffer and mixed; 4×ULight™-labeled JAK1
concentration 5 μM) was added to 576 μL 1×Kinase Assay Buffer and mixed; 4×ATP Solution
2×substrate/ATP Mix: 560 μL foregoing 4×ULight™-labeled JAK1 and 560 μL 4×ATP solution
and mixed (prepared before use). The assays used an ULight-labeled peptide substrate and a
Europium-W1024-labeled antiphosphotyrosine antibody. The VEGFR-2 was purchased from
Carna Biosciences, Inc. (New York, USA). The 384-well plates were obtained from PerkinElmer.
Compounds were dissolved in DMSO and diluted to 11 concentrations at a tripling rate from 2.500
5 μL 2×VEGFR-2 kinase solution (0.5 nM)
was added to 384-well plates homogeneous mixing and pre-reaction at room temperature for 30
min. Next, 2.5 μL 4×Ultra ULightTM-JAK-1(Tyr1023) Peptide (200 nM)/ATP (40 μM) was
added to the corresponding wells of a 384-well plate. Negative control: 2.5 μL/well 4×substrate/ATP mixture and 7.5 μL 1×kinase assay buffer in 384-well plate well. Positive control:
μL/well 2×VEGFR-2 kinase solution was added to the 384-well plate, The final concentration of DMSO in the mixing system was 4%. After incubation at room temperature and dark for 60 min, 5 μL 4×stop solution was added to corresponding wells to react for 5 min and then 5 μL 4×detection mix was added to the corresponding wells of a 384-well plate. The mixture was centrifugally mixed and stayed for 60 min at room temperature for color development. The plate
was read using an Envision plate reader. The inhibition rate (%) = (positive well reading-
compound well reading)/(positive well reading-negative well reading)×100. The corresponding IC50 values were calculated using GraphPad Prism 5.0.
Data set [8] concerns the target T2, EGFR (Homo sapiens, UniProt P00533). The data set can be described thus: EGFR inhibitory assay (EGFR-TK test).
Protocol: Baculoviral expression vectors including pBlueBacHis2B and pFASTBacHTc were used
5ʹ upstream to the EGFR sequence comprised a sequence that encoded (His)6. Sf-9 cells were infected for 72h for protein expression. The pellets of Sf-9 cells were solubilized in a buffer containing sodium vanadate (100 μM), aprotinin (10 μg/mL), triton (1%), HEPES
buffer(50mM), ammonium molybdate (10 μM), benzamidine HCl (16 μg/mL), NaCl (10 mM),leupeptin (10 μg/mL) and pepstatin (10 μg/mL) at 0°C for 20 min at pH 7.4, followed by centrifugation for 20 min. To eliminate the nonspecifically bound material, a Ni-NTA super flow packed column was used to pass through and wash the crude extract supernatant first with 10mM and then with 100 mM imidazole. Histidine-linked proteins were first eluted with 250 and then with 500 mM imidazole subsequent to dialysis against NaCl (50 mM), HEPES (20 mM), glycerol (10%) and 1 μg/mL each of aprotinin, leupeptin and pepstatin for 120 min. The purification was performed either at 4 °C or on ice. To record autophosphorylation level, EGFR kinase assay was carried out on the basis of DELFIA/Time-Resolved Fluorometry. The compounds were first
dissolved in DMSO absolute, subsequent to dilution to appropriate concentration using HEPES
(25 mM) at pH 7.4. Each compound (10 μL) was incubated with recombinant enzyme (10 μL, 5
ng for EGFR, 1:80 dilution in 100 mM HEPES) for 10 min at 25 °C, subsequent to the addition of
5X buffer (10 μL, containing 2 mM MnCl2, 100 μM Na3VO4, 20 mM HEPES and 1 mM DTT)
and ATP-MgCl2 (20 μL, containing 0.1 mM ATP and 50 mM MgCl2) and incubation for 1h. The
negative and positive controls were included in each plate by the incubation of enzyme either with
or without ATP-MgCl2. The liquid was removed after incubation and the plates were washed
thrice using a wash buffer. The Europium-tagged antiphosphotyrosine antibody (75 μL, 400 ng)
was added to each well followed by incubation of 1h and then washing of the plates using buffer.
The enhancement solution was added to each well and the signal was recorded at excitation and
The autophosphorylation percentage inhibition by compounds was calculated using the following equation:
calculated. The majority of signals detected by antiphosphotyrosine antibody were from EGFR because the enzyme preparation contained low impurities.
Data set [9] deals with T1, VEGFR-2. Further details: purchased Carna Biosciences, Inc. The conditions noted are these: cited from earlier work.
Data set [10] deals with T2, EGFR. The arrangement: 645–1186; His6 (N); made in house; host or cells: Sf-9 insect cells (baculovirus; pBlueBacHis2B and pFASTBacHTc vectors). The conditions noted are these: cited from earlier work.
In data set [11] the test system is BRAF^V600E. Further details: method as in PMID 39281035. The conditions noted are these: cited from earlier work.
Data set [12] deals with mutant EGFR (EGFR^T790M). Further details: method as in PMID 39281035. As to conditions: cited from earlier work.

One may read the viability as the share of living cells, or the viability signal relative to a control. Low readings indicate a greater loss of cells, high ones better survival. One may read the IC50 as the midpoint of a concentration-inhibition curve. In general, GI50 refers to the concentration giving 50% growth inhibition. Low values mean more potent growth inhibition, high ones less potent growth inhibition.

The structures appear in SMILES notation. Like-named read-outs stand apart in the source and are kept apart here.

T2 sequence (P00533 669-1210): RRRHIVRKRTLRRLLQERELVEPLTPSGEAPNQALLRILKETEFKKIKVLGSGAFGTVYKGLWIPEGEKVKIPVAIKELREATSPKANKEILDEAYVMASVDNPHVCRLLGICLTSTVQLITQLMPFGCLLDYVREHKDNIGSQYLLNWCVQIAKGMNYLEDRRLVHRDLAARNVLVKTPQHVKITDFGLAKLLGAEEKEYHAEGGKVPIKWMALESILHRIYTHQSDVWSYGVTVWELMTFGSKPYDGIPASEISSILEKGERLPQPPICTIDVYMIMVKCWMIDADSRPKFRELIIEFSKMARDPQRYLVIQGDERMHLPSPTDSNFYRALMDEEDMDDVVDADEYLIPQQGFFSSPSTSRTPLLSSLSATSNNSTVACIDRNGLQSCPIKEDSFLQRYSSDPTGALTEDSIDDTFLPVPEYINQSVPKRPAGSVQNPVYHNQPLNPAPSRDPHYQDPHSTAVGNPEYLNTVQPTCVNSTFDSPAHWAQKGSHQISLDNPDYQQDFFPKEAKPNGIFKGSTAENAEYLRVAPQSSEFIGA
T1 sequence (P35968 20-1356): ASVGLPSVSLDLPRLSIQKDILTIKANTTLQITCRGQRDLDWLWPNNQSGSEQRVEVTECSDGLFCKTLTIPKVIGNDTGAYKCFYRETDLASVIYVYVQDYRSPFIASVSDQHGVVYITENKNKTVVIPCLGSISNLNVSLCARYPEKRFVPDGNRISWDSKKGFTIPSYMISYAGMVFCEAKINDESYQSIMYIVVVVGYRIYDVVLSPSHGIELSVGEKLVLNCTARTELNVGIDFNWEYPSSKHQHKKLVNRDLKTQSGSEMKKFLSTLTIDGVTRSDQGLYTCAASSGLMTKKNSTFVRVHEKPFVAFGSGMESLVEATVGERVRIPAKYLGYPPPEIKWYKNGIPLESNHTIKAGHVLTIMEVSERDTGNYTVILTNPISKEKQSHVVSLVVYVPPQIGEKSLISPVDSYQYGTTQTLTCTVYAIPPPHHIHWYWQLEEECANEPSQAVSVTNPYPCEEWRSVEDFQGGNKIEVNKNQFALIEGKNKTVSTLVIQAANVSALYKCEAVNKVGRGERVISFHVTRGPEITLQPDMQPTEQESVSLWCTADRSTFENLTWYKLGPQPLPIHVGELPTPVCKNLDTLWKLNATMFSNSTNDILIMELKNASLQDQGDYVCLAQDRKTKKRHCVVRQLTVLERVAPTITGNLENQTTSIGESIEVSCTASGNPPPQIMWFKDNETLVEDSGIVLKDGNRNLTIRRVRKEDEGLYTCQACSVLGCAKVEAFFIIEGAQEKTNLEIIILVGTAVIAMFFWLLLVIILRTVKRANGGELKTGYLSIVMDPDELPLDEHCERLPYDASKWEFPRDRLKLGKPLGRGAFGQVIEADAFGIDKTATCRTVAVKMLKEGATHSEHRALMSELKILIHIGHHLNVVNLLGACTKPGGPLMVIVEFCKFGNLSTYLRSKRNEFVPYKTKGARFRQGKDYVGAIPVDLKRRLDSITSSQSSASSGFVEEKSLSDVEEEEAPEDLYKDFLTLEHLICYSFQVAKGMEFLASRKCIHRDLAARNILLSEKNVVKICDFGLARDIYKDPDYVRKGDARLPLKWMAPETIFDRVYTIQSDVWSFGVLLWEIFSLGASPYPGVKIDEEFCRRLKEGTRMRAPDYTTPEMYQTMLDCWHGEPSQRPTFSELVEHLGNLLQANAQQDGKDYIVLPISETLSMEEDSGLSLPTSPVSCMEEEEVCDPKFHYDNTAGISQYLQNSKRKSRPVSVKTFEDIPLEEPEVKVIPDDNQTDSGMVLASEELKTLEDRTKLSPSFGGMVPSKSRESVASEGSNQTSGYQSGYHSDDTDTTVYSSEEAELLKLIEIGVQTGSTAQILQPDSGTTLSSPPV

Consider `N#Cc1c(-c2ccncc2)nc(SCc2nc(-c3ccc(Cl)cc3)no2)[nH]c1=O` [Compound 10e, 2-(((3-(4-Chlorophenyl)-1,2,4-oxadiazol-5-yl)methyl)thio)-6-oxo-4-(pyridin-4-yl)-1,6-dihydropyrimidine-5-carbonitrile], for which the viability at 96 h, 50 µM in [1] was 90%. Further, the IC50 worked out at 0.03 ± 0.002 µM in [2]; 0.025 ± 0.001 µM in [3]; 0.028 ± 0.001 µM in data set [4]; 0.03 ± 0.002 µM in data set [5]; 0.032 ± 0.002 µM in data set [7]; 0.065 ± 0.004 µM in data set [8]. This molecule also came in with a GI50 in data set [6] (Homo sapiens) of 0.028 µM. In data set [6], the “Reduction in antiproliferative potency relative to 10k (GI50)” value was found to be 1.3 fold.

Molecule `N#Cc1c(-c2ccc(Cl)cc2)nc(SCc2nc(-c3ccc(Cl)cc3)no2)[nH]c1=O` [Compound 10h, 2-(((3-(4-Chlorophenyl)-1,2,4-oxadiazol-5-yl)methyl)thio)-4-(4-chlorophenyl)-6-oxo-1,6-dihydropyrimidine-5-carbonitrile] yielded a viability at 96 h, 50 µM in data set [1] of 92%. Also, the IC50 in data set [2] is 0.035 ± 0.002 µM; in data set [3], 0.031 ± 0.002 µM; in data set [4], 0.035 ± 0.002 µM; in [5], 0.036 ± 0.002 µM; in data set [7] it was 0.043 ± 0.003 µM; in [8], 0.079 ± 0.005 µM. For the same molecule, the figures for the concentration for 50% growth inhibition (GI50) in [6] (Homo sapiens) and in data set [6] were 0.031 µM and 0.034 µM, respectively. Further, the “Reduction in antiproliferative potency relative to 10k (GI50)” value in data set [6] was found to be 1.6 fold.

`COc1ccc(-c2noc(CSc3nc(-c4ccc(Cl)cc4)c(C#N)c(=O)[nH]3)n2)cc1` [Compound 10i, 2-(((3-(4-Methoxyphenyl)-1,2,4-oxadiazol-5-yl)methyl)thio)-4-(4-chlorophenyl)-6-oxo-1,6-dihydropyrimidine-5-carbonitrile] had a viability at 96 h, 50 µM in data set [1] of 91%. In addition, the 50% inhibitory concentration (IC50) in data set [2] worked out at 0.033 ± 0.002 µM; in [3], 0.028 ± 0.001 µM; in data set [4] it was 0.03 ± 0.001 µM; in [5] it was 0.034 ± 0.001 µM; in data set [7], 0.039 ± 0.002 µM; in [8] it was 0.071 ± 0.005 µM. The GI50 in data set [6] (Homo sapiens) was 0.034 µM; in data set [6], 0.031 µM.

As for `COc1cc(-c2noc(Cn3cc(-c4ccccc4)nn3)n2)cc(OC)c1OC` [Compound III], the results for the IC50 in data set [9] (read-out: VEGFR-2 IC50) and in data set [10] were 0.0024 µM and 0.076 µM, respectively.

Take `CC(=O)c1ccc(NC(=O)CSC2=NC(=O)C(C#N)C(c3ccccc3)N2)cc1` (stereo not shown) [Compound II]: the IC50 in data set [9] (read-out: VEGFR-2 kinase IC50) is 0.199 µM.

As for `O=c1c2ccccc2nc(SCc2nc(-c3ccc(Cl)cc3)no2)n1-c1ccccc1` [Compound IV], the IC50 in data set [11] is 0.048 µM. In data set [12], the “Efficacy against mutant EGFR (EGFR^T790M)” value is “considerable efficacy”.

Regarding `COc1ccc(-c2csc(NC(=O)CSc3nc(-c4ccc(OC)cc4)c(C#N)c(=O)[nH]3)n2)cc1` [Compound I], the IC50 in data set [10] (in vitro EGFR inhibitory assay) is 0.19 ± 0.2 µM.
